In the NIST ThermoML archive (doi:10.1016/j.jct.2016.05.007):
Where “and” joins values, the source holds several entries; their conditions need not be identical. Equal values may be shown once. ± gives the expanded uncertainty stated by the source.

Legend:
[1] = for Triple point temperature: DSC
[2] = Molar enthalpy of transition or fusion; conditions: DSC
[3] = molar enthalpy of vaporization or sublimation; conditions: 298.15 K; Crystal 2; Static calorimetry

CC(C)(C)c1ccc2c(c1)Cc1cc(C(C)(C)C)ccc1-2 [2,7-di-tert-butylfluorene]
[1]
Conditions	vapor or sublimation pressure
349.14 K, Crystal 2, Calculated from knudsen effusion weight loss	0.000106 ± 2e-05 kPa and 0.000105 ± 2e-05 kPa
351.14 K, Crystal 2, Calculated from knudsen effusion weight loss	0.000136 ± 2.1e-05 kPa and 0.000135 ± 2.1e-05 kPa and 0.000132 ± 2.1e-05 kPa
353.3 K, Crystal 2, Calculated from knudsen effusion weight loss	0.000169 ± 2.1e-05 kPa and 0.000171 ± 2.1e-05 kPa
355.28 K, Crystal 2, Calculated from knudsen effusion weight loss	0.000213 ± 2.1e-05 kPa and 0.000215 ± 2.1e-05 kPa and 0.000217 ± 2.1e-05 kPa
357.2 K, Crystal 2, Calculated from knudsen effusion weight loss	0.000271 ± 2.2e-05 kPa and 0.000267 ± 2.2e-05 kPa and 0.000261 ± 2.2e-05 kPa
359.19 K, Crystal 2, Calculated from knudsen effusion weight loss	0.000321 ± 2.3e-05 kPa and 0.000336 ± 2.3e-05 kPa and 0.00033 ± 2.3e-05 kPa
361.14 K, Crystal 2, Calculated from knudsen effusion weight loss	0.000408 ± 2.5e-05 kPa and 0.000409 ± 2.5e-05 kPa
363.27 K, Crystal 2, Calculated from knudsen effusion weight loss	0.000509 ± 2.7e-05 kPa and 0.000507 ± 2.7e-05 kPa and 0.000514 ± 2.7e-05 kPa
368.2 K, Crystal 1, Calculated from knudsen effusion weight loss	0.000805 ± 3.5e-05 kPa and 0.000816 ± 3.5e-05 kPa and 0.000828 ± 3.5e-05 kPa
368.55 K, Crystal 1, Closed cell (Static) method	0.000873 ± 2.4e-05 kPa
369.13 K, Crystal 1, Calculated from knudsen effusion weight loss	0.000886 ± 3.7e-05 kPa and 0.000888 ± 3.7e-05 kPa and 0.000889 ± 3.7e-05 kPa
370.26 K, Crystal 1, Calculated from knudsen effusion weight loss	0.000975 ± 4e-05 kPa and 0.000979 ± 4e-05 kPa
370.54 K, Crystal 1, Closed cell (Static) method	0.001055 ± 2.5e-05 kPa
371.21 K, Crystal 1, Calculated from knudsen effusion weight loss	0.001079 ± 8.5e-05 kPa and 0.001082 ± 8.5e-05 kPa and 0.00107 ± 8.4e-05 kPa
372.21 K, Crystal 1, Calculated from knudsen effusion weight loss	0.00118 ± 9.5e-05 kPa and 0.001178 ± 9.5e-05 kPa
372.5 K, Crystal 1, Closed cell (Static) method	0.001246 ± 2.6e-05 kPa
374.5 K, Crystal 1, Closed cell (Static) method	0.001492 ± 2.7e-05 kPa
376.45 K, Crystal 1, Closed cell (Static) method	0.001778 ± 2.9e-05 kPa
378.41 K, Crystal 1, Closed cell (Static) method	0.002106 ± 3.1e-05 kPa
380.4 K, Crystal 1, Closed cell (Static) method	0.002524 ± 3.3e-05 kPa
382.38 K, Crystal 1, Closed cell (Static) method	0.002965 ± 3.5e-05 kPa
384.34 K, Crystal 1, Closed cell (Static) method	0.003492 ± 3.7e-05 kPa
386.3 K, Crystal 1, Closed cell (Static) method	0.004126 ± 4.1e-05 kPa
388.27 K, Crystal 1, Closed cell (Static) method	0.004862 ± 4.4e-05 kPa
390.24 K, Crystal 1, Closed cell (Static) method	0.00567 ± 4.8e-05 kPa

[1], Closed cell (Static) method, Liquid
Conditions	vapor or sublimation pressure [kPa]
384.34 K	0.003946 ± 4e-05
386.32 K	0.004548 ± 4.3e-05
388.28 K	0.005217 ± 4.6e-05
390.28 K	0.005976 ± 5e-05
392.22 K	0.006859 ± 5.4e-05
394.2 K	0.007843 ± 5.9e-05
396.17 K	0.008987 ± 6.5e-05
398.15 K	0.01026 ± 7.1e-05
400.05 K	0.01164 ± 7.8e-05
402.07 K	0.01327 ± 8.6e-05
404.04 K	0.01508 ± 9.5e-05

Conditions	Molar enthalpy of transition or fusion, [2] [kcal/mol]	Triple point temperature, [1] [K]
Crystal 1	3.73 ± 0.0956	395.9 ± 0.8
Crystal 2	2.39 ± 0.0645	367 ± 0.8

Conditions	molar enthalpy [kcal/mol]
[3]	28.66 ± 0.239
